# Results taken from article PMC3183320 (Protein expression and purification, 2011).
# “Also recorded” adds a separate entry of the source.
# T1: BPV1 E6 released from MBP-LXXLL-tevs-E6 by TEV protease (Bovine Papillomavirus Type 1, UniProt P06931 1-137)
# T1 sequence: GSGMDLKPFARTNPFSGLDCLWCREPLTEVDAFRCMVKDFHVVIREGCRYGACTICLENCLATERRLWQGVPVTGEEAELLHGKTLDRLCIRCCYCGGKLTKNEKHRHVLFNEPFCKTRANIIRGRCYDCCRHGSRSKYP
# T2: paxillin LXXLL peptide (Homo sapiens, UniProt P49023)
# T2 chain: MDDLDALLADLESTT
# B1: E6 (protein)
# chain: MDLKPFARTNPFSGLDCLWCREPLTEVDAFRCMVKDFHVVIREGCRYGACTICLENCLATERRLWQGVPVTGEEAELLHGKTLDRLCIRCCYCGGKLTKNEKHRHVLFNEPFCKTRANIIRGRCYDCCRHGSRSKYP
# What was measured:
# [1] = target: T3, BPV1 E6 (Bovine papillomavirus type 1, UniProt P06931); experiment: SPR; format: binding
# [2] = target: HPV16 E6; details: read-out: affinity of HPV16 E6 / E6AP; ref [29]; cited from earlier work
# [3] = target: T3, BPV1 E6; format: physicochemical; details: peptide provided during BPV1 E6 biosynthesis
# [4] = target: T1, BPV1 E6 released from MBP-LXXLL-tevs-E6 …; experiment: SEC
# [5] = target: T2, paxillin LXXLL peptide; experiment: SPR
molecule,measurement,setting,value
DDLDALLADKE [paxillin],dissociation phase (in words),"[1]; SPR sensorgrams, paxillin as compared to E6AP",remarkably slow dissociation phase; also recorded: slow dissociation rate kinetics
same,affinity for BPV1 E6 (in words),"[1]; SPR, as compared to other E6/peptide interactions",significantly higher affinity as compared to other E6/peptide interactions; also recorded: significantly stronger; also recorded: high affinity
ESSELTLQELLGEER [E6AP],Kd,[2],4000 nM
EFTMDDLDALLADKE [paxillin LXXLL peptide],effect on BPV1 E6 protein solubility (in words),[3],greatly enhanced the protein’s solubility
EFTMDDLDALLADKE [synthetic peptide derived from paxillin (LXXLL synthetic peptide)],binding result,[4],binds
MDDLDALLADGGSGSNENLYFQ [MBP-fused LXXLL peptide (MBP-LXXLL-tevs left after TEV digestion of MBP-LXXLL-tevs-E6)],binding result,[4],binds
B1,Kd,[5],35.1 nM
